Reference: US20260345609A1, “METHODS FOR PROMOTING PERSISTENCE OF CELL THERAPY” (Legend Biotech Ireland Limited, priority 2022, published 2026)

Columns and labels:
[1] = system: untransduced T cells (UnT); experiment: In vitro mixed lymphoid (MLR) model with LUCAR-20SD cells, UnT and Raji cells: host UnT cells; type: cell-based, human; conditions: 0.05 μM, 1 μM, 2 μM MTX
Experimental: To evaluate the ability of LUCAR-20SD cells to tolerate allogeneic T cell rejection, an in vitro mixed lymphoid (MLR) model was established.
Using the T cells from a random healthy donor (B donor), LUCAR-20SD cells were prepared following the method in Example 1, as the graft cells. Un-transduced T cells (UnT) from another random healthy donor (Adonor) were also prepared, as the host cells.
The cell density of CD20 positive cells (lymphoma cell lines Raji, ATCC, CCL-86) was adjusted to 1×10^6 cells/mL. Raji cells were treated with 20 μg/mL mitomycin at 37° C. for 3 h, washed three times with 10 mL DPBS, and were resuspended in the culture medium. 20×10^6 untransduced T cells (UnT, T cell donor A), 1×10^6 LUCAR-20SD cells (T cell donor B), and 5×10^6 treated lymphoma cells Raji were mixed and cultured in the medium. The cell mixture was divided into 4 groups, and 0 μM MTX, 0.05 μM MTX, 1 μM MTX, or 2 μM MTX was added, respectively. […] According to the formula: fold change of cell number (UnT)=[cell number counted by AOPI×(CAR-CD5+%)]/20, fold change of cell number (LUCAR-20SD cells)=[cell number counted by AOPI×(CAR+CD5+%)]/1, the cell proliferation curves of UnT and LUCAR-20SD cells were plotted.

LUCAR-20SD cells = experiment: Effect of MTX concentration on proliferation of LUCAR-20SD cells in vitro (AOPI counting); type: cell-based, human
Description: pLVX-Puro vector purchased from Clontech was subjected to the digestion reaction with ClaI and EcoRI restriction enzymes, and the CMV promoter was replaced with a human EFlapromoter (GenBank: J04617.1) to obtain the pLVX-hEF1α vector. The gene of DHFR L22F/F31S (SEQ ID NO: 1) was inserted between SIV NEF M116 and CD20 CAR of LCAR-UL186S, which was disclosed in PCT patent applications No. PCT/CN2020/112181 and PCT/CN2020/112182. The fusion gene sequence of SIV Nef_M116-P2A-DHFR L22F/F31S-IRES-CD8α SP-CD20 scFv (Leu16)-CD8α Hinge-CD8α TM-4-1BB-ITAM010, hereinafter referred to as “LUCAR-20SD” (SEQ ID NO: 4) was cloned into the expression plasmid pLVX-hEF1α to form the LUCAR-20SD expression plasmid named as M1586. The recombinant expression plasmid M1586 was extracted, mixed with psPAX2 and pMD2. G helper plasmids in a certain proportion, and co-transfected into HEK 293T cells. After 60 h of transfection, the cell culture supernatant containing the virus was collected and centrifuged at 4° C. and 3000 rpm for 5 min. After the supernatant was filtered through a 0.45 μm filter, the 500 KD hollow fiber membrane column tangential flow technique was used to further concentrate to prepare a lentivirus concentrate, which was stored at-80° C. for later use.
50 mL of fresh peripheral blood of volunteers was extracted, and mixed with lymphocyte separation medium. The peripheral blood mononuclear cells (PBMC) were separated by density gradient centrifugation. The cells were labeled with magnetic beads using Pan T Cell Isolation Kit (Miltenyi Biotech), and T lymphocytes were isolated and purified, and then activated by CD3/CD28 magnetic beads. After culturing for 24 hours in a 37° C., 5% CO2 incubator, 5×10^6 activated T lymphocytes were infected with the lentiviral vector of LUCAR-20SD. […]
Cultured with the addition of methotrexate (MTX) at the concentrations of 0 μM, 0.01 μM, 0.05 μM, 0.1 μM, 1 μM, or 2 μM, the cell number of LUCAR-20SD cells at day0 day3 day6 day9, day 12, and the cell number of CAR-γδT cells at day0 day2 day5 day7 were counted by AOPI. […]

## CN(Cc1cnc2nc(N)nc(N)c2n1)c1ccc(C(=O)N[C@@H](CCC(=O)O)C(=O)O)cc1 [MTX, methotrexate]
[1]; day 1 to day 13
  fold change of cell number (UnT): less than 1
[1]; mixed culture with LUCAR-20SD and Raji cells
  proliferation of UnT cells: significantly inhibited
LUCAR-20SD cells; 0.01 μM to 1 μM MTX, day 12, p>0.05
  proliferation of LUCAR-20SD cells compared with 0 μM MTX: no significant difference in cell proliferation
LUCAR-20SD cells; 2 μM MTX, day 12, p<0.05
  proliferation of LUCAR-20SD cells compared with 0 μM MTX: decreased significantly
LUCAR-20SD cells; Homo sapiens, 288 h, day 12, read-out: MTX concentration that affects the proliferation of LUCAR-20SD cells
  minimal effective concentration: ≥ 2 µM
